Test results: patent US12077503B2, “Substituted cyclic amides and their use as herbicides” (FMC CORPORATION, priority 2015, dated 2024)

How the values were obtained:
Format in all cases: in vivo
[1] = test system: barnyardgrass (Echinochloa crus-galli); assay: Test G Pre-Emergence Protocol; conditions: Echinochloa crus-galli, pre-emergence, 312 h, evaluated after 13 days; for pest or weed control at 15.625 g/ha: 15.625 g ai/ha; for pest or weed control at 15.625 g/ha / pest or weed control at 250 g/ha: read-out: Barnyardgrass damage rating (100=total damage to plant; 0=no damage to plant); for pest or weed control at 62.5 g/ha: 62.5 g ai/ha, 100=total damage to plant, 0=no damage to plant, read-out: Barnyardgrass damage rating; for pest or weed control at 250 g/ha: 250 g ai/ha
How it was run: (§1)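 Herbicidal effect was rated 13 days post-application on a scale where 100 equals total damage. Spraying took place the day after sowing, using 15.625, 62.5 or 250 g/ha of compound in a 50:50 acetone/water solution with 0.5% Tween 20.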

corn (Zea mays) [2] = assay: Test G Pre-Emergence Protocol; conditions: Zea mays, pre-emergence, 312 h, evaluated after 13 days; for plant injury at 15.625 g/ha: 15.625 g ai/ha; for plant injury at 15.625 g/ha / plant injury at 250 g/ha: read-out: Corn damage rating (100=total damage to plant; 0=no damage to plant); for plant injury at 62.5 g/ha: 62.5 g ai/ha, 100=total damage to plant, 0=no damage to plant, read-out: Corn damage rating; for plant injury at 250 g/ha: 250 g ai/ha
How it was run: as §1

[3] = test system: giant foxtail (Setaria faberi); assay: Test G Pre-Emergence Protocol; conditions: Setaria faberi, pre-emergence, 312 h, evaluated after 13 days; for pest or weed control at 15.625 g/ha: 15.625 g ai/ha; for pest or weed control at 15.625 g/ha / pest or weed control at 250 g/ha: read-out: Foxtail, Giant damage rating (100=total damage to plant; 0=no damage to plant); for pest or weed control at 62.5 g/ha: 62.5 g ai/ha, 100=total damage to plant, 0=no damage to plant, read-out: Foxtail, Giant damage rating; for pest or weed control at 250 g/ha: 250 g ai/ha
How it was run: as §1

[4] = test system: ivy-leaved morning glory (Ipomoea hederacea); assay: Test G Pre-Emergence Protocol; conditions: Ipomoea, pre-emergence, 312 h, evaluated after 13 days; for pest or weed control at 15.625 g/ha: 15.625 g ai/ha; for pest or weed control at 15.625 g/ha / pest or weed control at 250 g/ha: read-out: Morningglory, Ivy-leaved damage rating (100=total damage to plant; 0=no damage to plant); for pest or weed control at 62.5 g/ha: 62.5 g ai/ha, 100=total damage to plant, 0=no damage to plant, read-out: Morningglory, Ivy-leaved damage rating; for pest or weed control at 250 g/ha: 250 g ai/ha
How it was run: as §1

[5] = test system: redroot pigweed (Amaranthus retroflexus); assay: Test G Pre-Emergence Protocol; conditions: Amaranthus retroflexus, pre-emergence, 312 h, evaluated after 13 days; for pest or weed control at 15.625 g/ha: 15.625 g ai/ha; for pest or weed control at 15.625 g/ha / pest or weed control at 250 g/ha: read-out: Pigweed, Redroot damage rating (100=total damage to plant; 0=no damage to plant); for pest or weed control at 62.5 g/ha: 62.5 g ai/ha, 100=total damage to plant, 0=no damage to plant, read-out: Pigweed, Redroot damage rating; for pest or weed control at 250 g/ha: 250 g ai/ha
How it was run: as §1

[6] = test system: velvetleaf (Abutilon theophrasti); assay: Test G Pre-Emergence Protocol; conditions: Abutilon theophrasti, pre-emergence, 312 h, evaluated after 13 days; for pest or weed control at 15.625 g/ha: 15.625 g ai/ha; for pest or weed control at 15.625 g/ha / pest or weed control at 250 g/ha: read-out: Velvetleaf damage rating (100=total damage to plant; 0=no damage to plant); for pest or weed control at 62.5 g/ha: 62.5 g ai/ha, 100=total damage to plant, 0=no damage to plant, read-out: Velvetleaf damage rating; for pest or weed control at 250 g/ha: 250 g ai/ha
How it was run: as §1

[7] = test system: barnyardgrass (Echinochloa crus-galli); assay: Test G Post-Emergence Protocol; conditions: Echinochloa crus-galli, post-emergence, 312 h, read-out: Barnyardgrass damage rating; for pest or weed control at 15.625 g/ha: 15.625 g ai/ha, evaluated after 13 days (100=total damage to plant; 0=no damage to plant); for pest or weed control at 62.5 g/ha: 62.5 g ai/ha; for pest or weed control at 62.5 g/ha / pest or weed control at 250 g/ha: evaluated after 13 days, 100=total damage to plant, 0=no damage to plant; for pest or weed control at 250 g/ha: 250 g ai/ha
How it was run: (§2)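 Eight days post-sowing, plants received a spray of test compound (acetone/water 50:50, 0.5% Tween 20) at 15.625, 62.5 or 250 g/ha. Glasshouse regime thereafter: 24/16 °C, 14 h light, 65% humidity. Assessment after 13 days on a 0–100 damage scale.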

corn (Zea mays) [8] = assay: Test G Post-Emergence Protocol; conditions: Zea mays, post-emergence, 312 h, read-out: Corn damage rating; for plant injury at 15.625 g/ha: 15.625 g ai/ha, evaluated after 13 days (100=total damage to plant; 0=no damage to plant); for plant injury at 62.5 g/ha: 62.5 g ai/ha; for plant injury at 62.5 g/ha / plant injury at 250 g/ha: evaluated after 13 days, 100=total damage to plant, 0=no damage to plant; for plant injury at 250 g/ha: 250 g ai/ha
How it was run: as §2

[9] = test system: giant foxtail (Setaria faberi); assay: Test G Post-Emergence Protocol; conditions: Setaria faberi, post-emergence, 312 h, read-out: Foxtail, Giant damage rating; for pest or weed control at 15.625 g/ha: 15.625 g ai/ha, evaluated after 13 days (100=total damage to plant; 0=no damage to plant); for pest or weed control at 62.5 g/ha: 62.5 g ai/ha; for pest or weed control at 62.5 g/ha / pest or weed control at 250 g/ha: evaluated after 13 days, 100=total damage to plant, 0=no damage to plant; for pest or weed control at 250 g/ha: 250 g ai/ha
How it was run: as §2

[10] = test system: ivy-leaved morning glory (Ipomoea hederacea); assay: Test G Post-Emergence Protocol; conditions: Ipomoea, post-emergence, 312 h, read-out: Morningglory, Ivy-leaved damage rating; for pest or weed control at 15.625 g/ha: 15.625 g ai/ha, evaluated after 13 days (100=total damage to plant; 0=no damage to plant); for pest or weed control at 62.5 g/ha: 62.5 g ai/ha; for pest or weed control at 62.5 g/ha / pest or weed control at 250 g/ha: evaluated after 13 days, 100=total damage to plant, 0=no damage to plant; for pest or weed control at 250 g/ha: 250 g ai/ha
How it was run: as §2

[11] = test system: redroot pigweed (Amaranthus retroflexus); assay: Test G Post-Emergence Protocol; conditions: Amaranthus retroflexus, post-emergence, 312 h, read-out: Pigweed, Redroot damage rating; for pest or weed control at 15.625 g/ha: 15.625 g ai/ha, evaluated after 13 days (100=total damage to plant; 0=no damage to plant); for pest or weed control at 62.5 g/ha: 62.5 g ai/ha; for pest or weed control at 62.5 g/ha / pest or weed control at 250 g/ha: evaluated after 13 days, 100=total damage to plant, 0=no damage to plant; for pest or weed control at 250 g/ha: 250 g ai/ha
How it was run: as §2

[12] = test system: velvetleaf (Abutilon theophrasti); assay: Test G Post-Emergence Protocol; conditions: Abutilon theophrasti, post-emergence, 312 h, read-out: Velvetleaf damage rating; for pest or weed control at 15.625 g/ha: 15.625 g ai/ha, evaluated after 13 days (100=total damage to plant; 0=no damage to plant); for pest or weed control at 62.5 g/ha: 62.5 g ai/ha; for pest or weed control at 62.5 g/ha / pest or weed control at 250 g/ha: evaluated after 13 days, 100=total damage to plant, 0=no damage to plant; for pest or weed control at 250 g/ha: 250 g ai/ha
How it was run: as §2

Compound | pest or weed control at 15.625 g/ha [1] [%] | pest or weed control at 62.5 g/ha [1] [%] | pest or weed control at 250 g/ha [1] [%] | plant injury at 15.625 g/ha (corn (Zea mays) [2]) [%] | plant injury at 62.5 g/ha (corn (Zea mays) [2]) [%] | plant injury at 250 g/ha (corn (Zea mays) [2]) [%] | pest or weed control at 15.625 g/ha [3] [%] | pest or weed control at 62.5 g/ha [3] [%] | pest or weed control at 250 g/ha [3] [%] | pest or weed control at 15.625 g/ha [4] [%] | pest or weed control at 62.5 g/ha [4] [%] | pest or weed control at 250 g/ha [4] [%] | pest or weed control at 15.625 g/ha [5] [%] | pest or weed control at 62.5 g/ha [5] [%] | pest or weed control at 250 g/ha [5] [%] | pest or weed control at 15.625 g/ha [6] [%] | pest or weed control at 62.5 g/ha [6] [%] | pest or weed control at 250 g/ha [6] [%] | pest or weed control at 15.625 g/ha [7] [%] | pest or weed control at 62.5 g/ha [7] [%] | other results
CN1C[C@H](c2cccc(C(F)(F)F)c2)[C@@H](C(=O)Nc2cnccc2[S+](C)[O-])C1=O (mixture of isomers) [Compound 1752] | 0 | 0 | 20 | 0 | 0 | 0 | 0 | 0 | 20 | 0 | 0 | 0 | 0 | 0 | 0 | 0 | 0 | 0 | 0 | 0 | pest or weed control at 250 g/ha [7]: 0%; plant injury at 15.625 g/ha (corn (Zea mays) [8]): 0%; plant injury at 62.5 g/ha (corn (Zea mays) [8]): 0%; plant injury at 250 g/ha (corn (Zea mays) [8]): 0%; pest or weed control at 15.625 g/ha [9]: 0%; pest or weed control at 62.5 g/ha [9]: 0%; pest or weed control at 250 g/ha [9]: 0%; pest or weed control at 15.625 g/ha [10]: 0%; pest or weed control at 62.5 g/ha [10]: 0%; pest or weed control at 250 g/ha [10]: 0%; pest or weed control at 15.625 g/ha [11]: 0%; pest or weed control at 62.5 g/ha [11]: 0%; pest or weed control at 250 g/ha [11]: 0%; pest or weed control at 15.625 g/ha [12]: 0%; pest or weed control at 62.5 g/ha [12]: 0%; pest or weed control at 250 g/ha [12]: 0%
CN1C[C@H](c2ccc(C(F)(F)F)cc2)[C@@H](C(=O)Nc2cccnc2[S+](C)[O-])C1=O (mixture of isomers) [Compound 1788] | 0 | 0 | 20 | 0 | 0 | 0 | 0 | 0 | 0 | 0 | 0 | 0 | 0 | 0 | 0 | 0 | 0 | 0 | 0 | 0 | pest or weed control at 250 g/ha [7]: 0%; plant injury at 15.625 g/ha (corn (Zea mays) [8]): 0%; plant injury at 62.5 g/ha (corn (Zea mays) [8]): 10%; plant injury at 250 g/ha (corn (Zea mays) [8]): 10%; pest or weed control at 15.625 g/ha [9]: 0%; pest or weed control at 62.5 g/ha [9]: 0%; pest or weed control at 250 g/ha [9]: 0%; pest or weed control at 15.625 g/ha [10]: 0%; pest or weed control at 62.5 g/ha [10]: 0%; pest or weed control at 250 g/ha [10]: 40%; pest or weed control at 15.625 g/ha [11]: 0%; pest or weed control at 62.5 g/ha [11]: 10%; pest or weed control at 250 g/ha [11]: 20%; pest or weed control at 15.625 g/ha [12]: 0%; pest or weed control at 62.5 g/ha [12]: 10%; pest or weed control at 250 g/ha [12]: 20%
CN1C[C@H](c2ccc(C(F)(F)F)cc2)[C@@H](C(=O)Nc2cccc(Cl)c2S(C)(=O)=O)C1=O (racemic) [Compound 1661] | 0 | 0 | 0 | 0 | 0 | 10 | 0 | 50 | 80 | 0 | 0 | 10 | 0 | 0 | 20 | 0 | 0 | 0 | 0 | 20 | pest or weed control at 250 g/ha [7]: 10%; plant injury at 15.625 g/ha (corn (Zea mays) [8]): 0%; plant injury at 62.5 g/ha (corn (Zea mays) [8]): 0%; plant injury at 250 g/ha (corn (Zea mays) [8]): 0%; pest or weed control at 15.625 g/ha [9]: 0%; pest or weed control at 62.5 g/ha [9]: 60%; pest or weed control at 250 g/ha [9]: 60%; pest or weed control at 15.625 g/ha [10]: 0%; pest or weed control at 62.5 g/ha [10]: 0%; pest or weed control at 250 g/ha [10]: 0%; pest or weed control at 15.625 g/ha [11]: 0%; pest or weed control at 62.5 g/ha [11]: 20%; pest or weed control at 250 g/ha [11]: 40%; pest or weed control at 15.625 g/ha [12]: 0%; pest or weed control at 62.5 g/ha [12]: 0%; pest or weed control at 250 g/ha [12]: 10%
